Laboratory results reported in the CheMixHub ionic liquid set.

Test: xn = mol fraction of the nth substance listed

CCCCCC[n+]1ccn(C)c1.F[B-](F)(F)F + CC(C)O + CCCO
viscosity [mPa·s], 101 kPa
Settings	293.15 K	303.15 K	313.15 K
x2 = 0.0547, x3 = 0.092	153.8	92	–
x2 = 0.0978, x3 = 0.4041	31.47	21.38	15.28
x2 = 0.1003, x3 = 0.7991	4.92	3.33	2.35
x2 = 0.1006, x3 = 0.6013	13.2	9.16	6.69
x2 = 0.1012, x3 = 0.4996	20.14	13.93	10.1
x2 = 0.1014, x3 = 0.7009	8.3	5.74	4.16
x2 = 0.1116, x3 = 0.2875	49.62	32.6	22.59
x2 = 0.1293, x3 = 0.1504	85.1	53.44	–
x2 = 0.1973, x3 = 0.1121	75.21	48.39	32.33
x2 = 0.1985, x3 = 0.4006	20.51	14.2	10.17
x2 = 0.1992, x3 = 0.3012	32.59	21.43	15.29
x2 = 0.2003, x3 = 0.2005	49.41	32.39	22.5
x2 = 0.2003, x3 = 0.4992	13.3	9.31	6.79
x2 = 0.2012, x3 = 0.6984	5	3.35	2.37
x2 = 0.2977, x3 = 0.1042	50.06	32.73	22.7
x2 = 0.2999, x3 = 0.4989	8.8	6.05	4.35
x2 = 0.3037, x3 = 0.4006	13.28	9.19	6.68
x2 = 0.3046, x3 = 0.5961	5.05	3.39	2.36
x2 = 0.3058, x3 = 0.3005	20.27	13.93	10.1
x2 = 0.3977, x3 = 0.2999	13.8	9.55	6.92
x2 = 0.3985, x3 = 0.104	31.6	21.33	15.15
x2 = 0.3987, x3 = 0.3005	13.61	9.43	6.88
x2 = 0.3989, x3 = 0.3998	8.77	6.02	4.33
x2 = 0.3989, x3 = 0.5015	5.18	3.4	2.38
x2 = 0.4002, x3 = 0.1968	21.12	14.53	10.38
x2 = 0.4992, x3 = 0.4006	5.21	3.47	2.4
x2 = 0.5004, x3 = 0.0998	20.98	14.38	10.33
x2 = 0.5013, x3 = 0.3019	8.68	5.91	4.23
x2 = 0.5734, x3 = 0.2335	8.61	5.85	4.17
x2 = 0.6, x3 = 0.0992	13.73	9.47	6.84
x2 = 0.6001, x3 = 0.3004	5.39	3.43	2.38
x2 = 0.6942, x3 = 0.1049	8.82	5.98	4.27
x2 = 0.698, x3 = 0.2007	5.44	3.54	2.45
x2 = 0.7991, x3 = 0.101	5.41	3.47	2.37

COP(=O)([O-])OC.Cn1cc[n+](C)c1 + CC(C)O + O
100 kPa
Settings	viscosity [mPa·s]
298.15 K, x2 = 0.248, x3 = 0.2507	83
303.15 K, x2 = 0.2, x3 = 0.1998	87
313.15 K, x2 = 0.148, x3 = 0.1518	81
323.15 K, x2 = 0.1, x3 = 0.0988	80
333.15 K, x2 = 0.044, x3 = 0.043	92

CCCCCCCCCCCCCCCC[n+]1ccccc1.O=C([O-])C(O)c1ccccc1 + CC(C)[C@H](N)C(=O)O + O
electrical conductivity [S/m], 101 kPa
Settings	293.15 K	298.15 K	303.15 K	308.15 K	313.15 K
x1 = 9.1e-07, x2 = 0.0009002	0.00089	0.00101	0.0011	0.0013	0.0014
x1 = 9.1e-07, x2 = 0.001799	0.00133	0.00151	0.0017	0.0019	0.0021
x1 = 1.08e-06, x2 = 0	0.00061	0.00068	0.00076	0.00083	0.0009
x1 = 1.98e-06, x2 = 0	0.001	0.0012	0.0013	0.0014	0.0016
x1 = 2e-06, x2 = 0.001799	0.00178	0.00203	0.0023	0.0025	0.0028
x1 = 2.17e-06, x2 = 0.0009002	0.0013	0.0015	0.0017	0.0019	0.0021
x1 = 2.88e-06, x2 = 0	0.00147	0.0016	0.0018	0.002	0.0022
x1 = 3.09e-06, x2 = 0.001799	0.00218	0.0025	0.0028	0.0031	0.0034
x1 = 3.26e-06, x2 = 0.0009002	0.00176	0.002	0.0022	0.0025	0.0028
x1 = 3.96e-06, x2 = 0	0.0019	0.0022	0.0024	0.0026	0.0029
x1 = 4e-06, x2 = 0.001799	0.00257	0.0029	0.0032	0.0036	0.004
x1 = 4.53e-06, x2 = 0.0009002	0.00226	0.00256	0.0029	0.0032	0.0035
x1 = 4.69e-06, x2 = 0	0.0023	0.0026	0.0029	0.0031	0.0035
x1 = 5.1e-06, x2 = 0.001799	0.00299	0.0034	0.0038	0.0042	0.0046
x1 = 5.95e-06, x2 = 0	0.00281	0.0032	0.0035	0.0038	0.0042
x1 = 5.98e-06, x2 = 0.0009002	0.00283	0.0032	0.0036	0.004	0.0044
x1 = 6.37e-06, x2 = 0.001799	0.00351	0.004	0.0044	0.0049	0.0055
x1 = 7.21e-06, x2 = 0	0.00341	0.0038	0.0042	0.0046	0.0051
x1 = 7.42e-06, x2 = 0.0009002	0.00334	0.00378	0.0042	0.0047	0.0051
x1 = 7.83e-06, x2 = 0.001799	0.00405	0.00458	0.0051	0.0057	0.0063
x1 = 8.83e-06, x2 = 0	0.00406	0.0046	0.005	0.0055	0.006
x1 = 8.87e-06, x2 = 0.0009002	0.00384	0.00435	0.0049	0.0054	0.006
x1 = 9.28e-06, x2 = 0.001799	0.00457	0.00517	0.0058	0.0064	0.0072
x1 = 1.032e-05, x2 = 0.0009002	0.00431	0.00487	0.0054	0.0061	0.0067
x1 = 1.045e-05, x2 = 0	0.00469	0.0053	0.0058	0.0065	0.0071
x1 = 1.074e-05, x2 = 0.001799	0.00499	0.00564	0.0063	0.0071	0.0079
x1 = 1.177e-05, x2 = 0.0009002	0.00466	0.00529	0.0059	0.0066	0.0074
x1 = 1.201e-05, x2 = 0.001799	0.00536	0.00607	0.0068	0.0076	0.0085
x1 = 1.207e-05, x2 = 0	0.00516	0.0058	0.0064	0.0071	0.0079
x1 = 1.322e-05, x2 = 0.0009002	0.00502	0.00569	0.0064	0.0071	0.0079
x1 = 1.347e-05, x2 = 0.001799	0.00572	0.00647	0.0073	0.0081	0.009
x1 = 1.351e-05, x2 = 0	0.00562	0.00631	0.007	0.0077	0.0085
x1 = 1.431e-05, x2 = 0.0009002	0.00533	0.00604	0.00678	0.0076	0.0084
x1 = 1.474e-05, x2 = 0.001799	0.00607	0.00687	0.0077	0.0086	0.0096
x1 = 1.478e-05, x2 = 0	0.00603	0.0068	0.0075	0.0083	0.0092
x1 = 1.557e-05, x2 = 0.0009002	0.00565	0.0064	0.00717	0.008	0.0089
x1 = 1.583e-05, x2 = 0.001799	0.00637	0.0072	0.0081	0.009	0.01
x1 = 1.622e-05, x2 = 0	0.00644	0.0072	0.008	0.0089	0.0098
x1 = 1.666e-05, x2 = 0.0009002	0.006	0.00675	0.0076	0.0084	0.0094
x1 = 1.766e-05, x2 = 0	0.00687	0.0077	0.0085	0.0094	0.0104

CCCC[N+](C)(C)C.O=S(=O)([N-]S(=O)(=O)C(F)(F)F)C(F)(F)F + CC(O)C(C)O
Settings	viscosity [mPa·s]
328.15 K, 101 kPa, x2 = 0	30

CCCC[N+](C)(C)C.O=S(=O)([N-]S(=O)(=O)C(F)(F)F)C(F)(F)F + CC(O)CO
101 kPa
Settings	viscosity [mPa·s]
323.15 K, x2 = 0	35.6
323.15 K, x2 = 0.8843	11.79
328.15 K, x2 = 0.1909	19.2
333.15 K, x2 = 0.3054	14.35
338.15 K, x2 = 0	22.1
338.15 K, x2 = 0.3054	12.44
338.15 K, x2 = 0.5274	9.87
338.15 K, x2 = 0.8149	7.45
343.15 K, x2 = 0	19.2
348.15 K, x2 = 0	16.81
348.15 K, x2 = 0.1909	11.32
348.15 K, x2 = 0.5274	7.89
348.15 K, x2 = 0.8149	5.76
353.15 K, x2 = 0.8149	5.53

CCCC[N+](C)(C)C.O=S(=O)([N-]S(=O)(=O)C(F)(F)F)C(F)(F)F + CCC(O)CO
101 kPa
Settings	viscosity [mPa·s]
323.15 K, x2 = 0.6289	15.53
328.15 K, x2 = 0	30
338.15 K, x2 = 0.2291	14.17
338.15 K, x2 = 0.3543	11.92
343.15 K, x2 = 0.2291	12.41
348.15 K, x2 = 0.6289	7.02
353.15 K, x2 = 0.5116	7.12
353.15 K, x2 = 0.8622	4.78

CC(C)[C@H](N)C(=O)O + CCCCCCCCCCCCCCCC[n+]1ccccc1.O=C([O-])C(O)c1ccccc1 + O
Settings	electrical conductivity [S/m]
313.15 K, 101 kPa, x2 = 0, x1 = 0.001799	0.0016

CC(C)[C@H](N)C(=O)O + CCCCCCCCCCCCCCCC[n+]1ccccc1.O=C([O-])c1ccccc1O + O
Settings	electrical conductivity [S/m]
313.15 K, 101 kPa, x1 = 0.001799, x2 = 0	0.00161

C[C@@H](O)[C@H](N)C(=O)O + CCCCCCCCCCCCCCCC[n+]1ccccc1.[Cl-] + O
308.15 K, 101 kPa
Settings	electrical conductivity [S/m]
x1 = 2.018e-05, x2 = 0	0.000218
x1 = 0.0002, x2 = 0	7.7e-05
x1 = 0.0009182, x2 = 0	0.000219

CC(C)[C@H](N)C(=O)O + CCCCCCCCCCCCCC[n+]1ccccc1.O=C([O-])C(O)c1ccccc1 + O
Settings	electrical conductivity [S/m]
313.15 K, 101 kPa, x2 = 0, x1 = 0.001799	0.00161
